SMILES strings stand for the structures. Converted amounts (≈) assume the structure as drawn. “And” between values parts separate entries of the source, which are not always exact repeats. Equal entries are not always repeated. “Also recorded” adds a separate entry of the source. Where two headings read alike, the source gives them in different places.

For data set [1], the system named is male rats. Description: Hypnotic activity (loss of the righting reflex) in rats. The conditions noted are these: Rattus norvegicus, ip, read-out: hypnotic dose.
Method: Hypnotic activity was assessed by simply determining the doses of the test substances (administered by IP injection) sufficient to cause a loss of the righting reflex (see above) and an apparent loss of consciousness and responsiveness.
The conditions of data set [2]: cited from earlier work.
Data set [3] deals with male mice. The following applies: Roszkowski and Govier 1962; cited from earlier work.
Data set [4] relates to aggressive experimental animals and anxious humans. The conditions noted are these: cited from earlier work.
Data set [5] deals with male rats. Description: Spontaneous locomotor activity measured electronically (sedative effect). The format is in vivo, rat. The following applies: for relative potency as strong sedative-hypnotic agent, valnoctamide versus isovaleramide: FIG. 3. The source says:
General sedative effects can also be measured electronically by recording drug-induced decreases in spontaneous locomotor activity in treated experimental animals, as shown in FIG. 3.

A further data set deals with P388. Description: In vitro cytotoxicity (cell growth inhibition), P388. The format is cell-based, human and murine. The following applies: Mus musculus, read-out: EC50 (concentration that inhibited cell growth by 50%). The method, then:
(§1) The valepotriate compounds valtrate, didrovaltrate and acevaltrate were compared with isovaleramide with respect to their effects on various human and murine tumor cell lines. The cells at log-phase growth were treated with various concentrations of test substances for 48 hr. Growth rates were then determined by directly counting cell numbers or by protein determination. EC50 is the effective concentration of test substance that inhibited cell growth by 50%.

The next data set deals with COL-2. Nature of the data set: In vitro cytotoxicity (cell growth inhibition), COL-2. The data set is classed as cell-based, human and murine. The following applies: Homo sapiens, read-out: EC50 (concentration that inhibited cell growth by 50%). As to the method: as §1
A further data set relates to MEL-2. Nature of the data set: In vitro cytotoxicity (cell growth inhibition), MEL-2. The data set is classed as cell-based, human and murine. The following applies: read-out: EC50 (concentration that inhibited cell growth by 50%). The method, then: as §1
The next data set concerns KB. Nature of the data set: In vitro cytotoxicity (cell growth inhibition), KB. The format is cell-based, human and murine. The following applies: Homo sapiens, read-out: EC50 (concentration that inhibited cell growth by 50%). The method, then: as §1
The test system of another data set is HT-1080. Nature of the data set: In vitro cytotoxicity (cell growth inhibition), HT-1080. The data set is classed as cell-based, human and murine. The conditions noted are these: Homo sapiens, read-out: EC50 (concentration that inhibited cell growth by 50%). As to the method: as §1
In a further data set the test system is BCA-1. Nature of the data set: In vitro cytotoxicity (cell growth inhibition), BCA-1. The format is cell-based, human and murine. The conditions noted are these: read-out: EC50 (concentration that inhibited cell growth by 50%). The method, then:
as §1

The subject of a further data set is LUC-1. Description: In vitro cytotoxicity (cell growth inhibition), LUC-1. The following applies: read-out: EC50 (concentration that inhibited cell growth by 50%). The data set is classed as cell-based, human and murine. As to the method: as §1
For the next data set, the system named is KB-V1. Description: In vitro cytotoxicity (cell growth inhibition), KB-V1. The data set is classed as cell-based, human and murine. The conditions noted are these: Homo sapiens, read-out: EC50 (concentration that inhibited cell growth by 50%). As to the method: as §1
Data set [6] has as its system male mice. Nature of the data set: Hypnotic activity (loss of the righting reflex) in mice. The conditions noted are these: Mus musculus, ip. The format is in vivo.
Data set [7] is described as follows: Acute toxicity (LD50) and therapeutic index. The conditions noted are these: mouse, in vivo; mice, IP. The data set is classed as in vivo. As to the method: (§2) Convulsant activity was tested for N,N-diethylisovaleramide and isovaleramide itself. The potential for CNS-stimulating and convulsant properties was assessed by administering appropriate doses of the test substances IP to rodents (male mice and rats). […] At the highest dose of isovaleramide tested (4000 mg/kg IP), some deaths resulted among the test animals (male mice) after sleeping for several days, apparently from respiratory depression. […] Further testing of isovaleramide at still higher dose levels was precluded by its solubility limits and the consequently overly large injection volumes required.

The subject of data set [8] is male mice. Description: Acute toxicity (LD50) and therapeutic index. The format is in vivo. The following applies: male mice, 4000 mg/kg IP. As to the method:
as §2

The test system of another data set is hepatic porphyria. The conditions noted are these: literature; cited from earlier work.
Data set [9] deals with male mice. Description: Direct observation of sedation / general activity level. The data set is classed as in vivo, mouse. The following applies: for minimal effective dose: Mus musculus, mice, IP; for observed sedative effects: male mice. The method, then: Sedative activity elicited by a test substance can be observed directly in experimental animals by a decrease in spontaneous locomotor activity, e.g., in open-field observation experiments. In such experiments, test animals are administered the test substance (usually by IP injection) and, after a suitable waiting period (usually 5-30 min), are placed into an open-field test chamber, which consists of a transparent plastic box with a clearly visible grid painted on the bottom (or floor). The numbers of excursions across the floor grids are then counted over a specified time period (usually 1-3 hours) and are subsequently compared with the numbers obtained from similarly treated saline controls. The number of grid crossings counted gives a direct measurement of the general activity level (measured as spontaneous locomotor activity) of each test animal in question. Sedative activity can be expressed as a percentage of the control level of spontaneous locomotor activity as measured by grid crossings per unit time.

The subject of another data set is experimental animals. The following applies: cited from earlier work; for narcotic and hypnotic effects: experimental animals.
For data set [10] the following is noted: in vivo; cited from earlier work.
In data set [11] the test system is various human and murine tumor cell lines. Description: Cytotoxicity summary over tumor cell lines. The format is cell-based. The following applies: summary of Table 1. As to the method: as §1
Data set [12] deals with male Sprague-Dawley rats. Nature of the data set: Vogel Conflict (anxiolytic) Assay, punished licks. The following applies: for anxiolytic activity in Vogel Conflict Assay: comparable dose levels (500-1000 mg/kg). The data set is classed as in vivo, rat.
From the text: In the Vogel Conflict Paradigm, thirsty rats are given mild electric shocks through a metal water dispenser when they try to drink. The shock is unpleasant, but not severe enough to cause overt pain. When administered anxiolytic drugs, the rats lick the dispenser more often than controls. Assessment of anxiolytic effects is thus measured as an increased number of licks.
Animals (male Sprague-Dawley rats, 250-300 g) are deprived of water for 24 hr and are then placed into a clear Plexiglass box (45 cm×25 cm×20 cm) which rests on a grid of stainless steel bars. A circuit between the grid bars and the drinking spout is established with a silver electrode in a drinking bottle placed in the chamber. The animals are allowed to lick the water dispenser for 5 min without shock; those animals that fail to lick are excluded from further study.
The animals are returned to the home colony and are again deprived of water for 24 hr and replaced in the chamber and allowed to lick for 1 min without shock. Then a 1 milliamp current (shock) is maintained for 4 min at the drinking spout. Only the animals showing 50% suppression in licking behavior compared to the first session are included in further testing.
The test substances are injected intraperitoneally (IP) after this session, and 30 min later the animals are again placed into the chamber. Again the animals are allowed to lick without shock for 1 min and the shock is instituted for the remaining 4 min. The number of punished licks during this time is used to assess anxiolytic activity.
The "anxiolytic index" is defined as the ratio of the number of punished licks of test animals to that of control animals during a 4-min period. An anxiolytic index greater than one indicates anxiolytic ("calmative") activity. In practice, it is considered that significant "calmative" activity is observed when the anxiolytic index is greater than 1.5.
Male Sprague-Dawley rats (250-300 g) were deprived of water for 24 hours before testing. The animals were allowed one five-minute period of drinking in the experimental chamber before receiving the test substances at the indicated doses. Thirty minutes later, the animals were returned to the chamber and allowed to drink for one minute without punishment. For the remaining four minutes, a shock was delivered to the drinking spout and the number of punished licks was recorded. Four or five animals were tested in each group.
The subject of the next data set is rats. The conditions noted are these: rat, in vivo. As to the method: as §2
Data set [13] relates to male mice. The conditions noted are these: mouse, in vivo, ip. The method, then:
as §2

Data set [14] has as its system male Sprague-Dawley rats. The following applies: injected at therapeutically effective doses; cited from earlier work.

Consider `CCC(C)C(CC)C(N)=O` (racemic) [valnoctamide], for which the minimal effective dose with male rats [1] was 250 mg/kg and 1750 µmol/kg. Moreover, the water solubility result in data set [2] was “very water insoluble”. Moreover, in the data set on male mice [3], the therapeutic index is around 11.4. Moreover, the “tranquilizing and anxiety-reducing properties” value in data set [4] is “purported to exhibit tranquilizing and anxiety-reducing properties”. Moreover, the “relative potency as strong sedative-hypnotic agent, valnoctamide versus isovaleramide” value in the data set on male rats [5] is “about ten times more potent than isovaleramide”.
For the molecule `CC(=O)OCC1=CO[C@@H](OC(=O)CC(C)C)[C@H]2C1=C[C@H](OC(=O)CC(C)(C)OC(C)=O)[C@]21CO1` [Acevaltrate], the EC50 in the data set with P388 (P388, 48 hr) worked out at 0.88 µg/mL (≈ 1.83 µM); in the data set with COL-2 (Col2, COL-2, 48 hr) it was 2.89 µg/mL (≈ 6.01 µM); in the data set with MEL-2 (MEL2, MEL-2, 48 hr) it was 0.75 µg/mL (≈ 1.56 µM); in the data set with KB (48 hr), 2.7 µg/mL (≈ 5.62 µM); in the data set on HT-1080 (HT-1080, 48 hr), 2.05 µg/mL (≈ 4.27 µM); in the data set with BCA-1 (BCA1, BCA-1, 48 hr) it was 1.94 µg/mL (≈ 4.04 µM). The EC50 with LUC-1 (LUC1, LUC-1, 48 hr) amounted to 4.3 µg/mL (≈ 8.95 µM); in the data set on KB-V1 (KB-V1, 48 hr), 2.26 µg/mL (≈ 4.7 µM).
As for `CC(=O)O[C@H]1C[C@@H]2C(COC(=O)CC(C)C)=CO[C@@H](OC(=O)CC(C)C)[C@@H]2[C@@]12CO2` [Didrovaltrate], the EC50 in the data set with P388 (P388, 48 hr) was 0.19 µg/mL (≈ 0.448 µM); in the data set on COL-2 (Col2, COL-2, 48 hr), 1.49 µg/mL (≈ 3.51 µM); with MEL-2 (MEL2, MEL-2, 48 hr) it was 0.42 µg/mL (≈ 0.989 µM); in the data set with KB (48 hr), 2.03 µg/mL (≈ 4.78 µM); in the data set on HT-1080 (HT-1080, 48 hr), 0.7 µg/mL (≈ 1.65 µM); in the data set with BCA-1 (BCA1, BCA-1, 48 hr), 0.7 µg/mL (≈ 1.65 µM). Moreover, the EC50 in the data set on LUC-1 (LUC1, LUC-1, 48 hr) worked out at 2.91 µg/mL (≈ 6.86 µM); with KB-V1 (KB-V1, 48 hr), 1.29 µg/mL (≈ 3.04 µM).
As to `CC(C)CC(N)=O` [Isovaleramide, isovaleramide], the EC50 in the data set on P388 (P388, 48 h) is above 20 µg/mL; in the data set with COL-2 (Col2, 48 h) it was above 20 µg/mL; in the data set with MEL-2 (MEL2, 48 h) it was above 20 µg/mL; in the data set with KB (48 h), above 20 µg/mL; with HT-1080 (HT-1080, 48 h), above 20 µg/mL; in the data set on BCA-1 (BCA1, 48 h), above 20 µg/mL. Also, the EC50 was above 20 µg/mL with LUC-1 (LUC1, 48 h) and above 20 µg/mL in the data set with KB-V1 (KB-V1, 48 h). In addition, the minimal effective dose was above 1000 mg/kg in the data set on male mice [6] (mice, IP, not hypnotic even at 1000 mg/kg, hypnotic at 2000 mg/kg, read-out: hypnotic dose); above 9900 µmol/kg in the data set on male mice [6] (mice, IP, not hypnotic even at this dose, read-out: hypnotic dose); above 1000 mg/kg in the data set with male mice [6] (very large doses approaching toxic dose levels, read-out: dose producing hypnosis); 250 mg/kg in the data set with male mice [9] (naive observers, read-out: dose at which naive observers distinguish treated mice from saline controls); 100 mg/kg with male mice [9] (very astute observers, read-out: dose at which very astute observers distinguish treated mice from controls). In addition, the water solubility result in data set [2] is reported as “essentially water soluble”. In addition, in data set [7], the LD50 is above 4000 mg/kg. For the same molecule, in [7], the selectivity ratio was around 40. Further, the survival entry with male mice [8] is “more than half of the experimental animals survived”. In addition, in the data set with male mice [8] (after sleeping for several days), the mortality result is on record as “some deaths”. Moreover, in the data set on hepatic porphyria, the hepatic porphyria-inducing properties result was “no hepatic porphyria-inducing properties”. Besides, the observed sedative effects entry is “clearly sedentary” with male mice [9] (1000 mg/kg IP); “much more pronounced” with male mice [9] (500 and 1000 mg/kg IP). The “clinical usefulness as a hypnotic” value in the data set with experimental animals (Impens 1912, Junkmann 1937) is on record as “clinically useless as a hypnotic”. In addition, the “narcotic and hypnotic effects” value in the data set with experimental animals was “narcotic and hypnotic effects in experimental animals when administered in very high doses; also recorded: hypnotic activity only when administered to experimental animals in very high doses”. The anticonvulsant properties entry in data set [10] is on record as “no anticonvulsant properties”. For the same molecule, in [11], the cytotoxicity entry is on record as “no cytotoxicity”. The “decrease in spontaneous locomotor activity” value in the data set with male rats [5] (250 mg/kg IP) was “decreased locomotor activity to a level comparable to that induced by valnoctamide at 25 mg/kg”; in the data set with male rats [5] (500 mg/kg IP), “comparable to that induced by valnoctamide at 50 mg/kg IP”. For the same molecule, the “relative potency as strong sedative-hypnotic agent, valnoctamide versus isovaleramide” value in the data set on male rats [5] was “only about one-tenth of the potent sedative-hypnotic properties exhibited by valnoctamide”. Also, the “increase in the number of punished licks over controls” value in the data set with male Sprague-Dawley rats [12] (IP, 500-1000 mg/kg) is recorded as “approximate three-fold increase”.
As to `CC(C)CC(=O)O` [Isovaleric acid], the “narcotic and hypnotic effects” value in the data set on experimental animals is “narcotic and hypnotic effects in experimental animals when administered in very high doses”.
`CCN(CC)C(=O)CC(C)C` [N,N-Diethylisovaleramide, N,N-diethylisovaleramide]: the “CNS-stimulating, anxiogenic and convulsant properties” value with rats is “CNS-stimulating, anxiogenic, and convulsant properties”. Besides, in the data set on rats (ip), the “dose at which potent convulsant” value stood at 250 mg/kg. For the same molecule, in the data set on male mice [13], the “dose causing death following convulsive seizures” value was found to be 500 mg/kg; the “dose with potent CNS-stimulating and convulsant properties” value was 250 mg/kg. Moreover, the “dose with CNS-stimulating (excitant) activity” value in the data set on male Sprague-Dawley rats [12] (Vogel assay (FIG. 2)) stood at 50 mg/kg.
Take `CC(=O)OCC1=CO[C@@H](OC(=O)CC(C)C)[C@H]2C1=C[C@H](OC(=O)CC(C)C)[C@]21CO1` [Valtrate]: the EC50 in the data set with P388 (P388, 48 h) was determined as 0.06 µg/mL (≈ 0.142 µM); in the data set with COL-2 (Col2, 48 h), 0.59 µg/mL (≈ 1.4 µM); in the data set with MEL-2 (MEL2, 48 h), 0.39 µg/mL (≈ 0.923 µM); in the data set on KB (48 h) it was 0.51 µg/mL (≈ 1.21 µM); in the data set with HT-1080 (HT-1080, 48 h), 0.41 µg/mL (≈ 0.97 µM); in the data set on BCA-1 (BCA1, 48 h), 0.41 µg/mL (≈ 0.97 µM). For the same molecule, the EC50 was 2 µg/mL (≈ 4.73 µM) in the data set on LUC-1 (LUC1, 48 h) and 0.72 µg/mL (≈ 1.7 µM) in the data set with KB-V1 (KB-V1, 48 h).
Consider `CN1C(=O)CN=C(c2ccccc2)c2cc(Cl)ccc21` [diazepam], for which the “increase in the number of licks” value in the data set with male Sprague-Dawley rats [14] is given as “ten-fold increase”.
Turning to `CCCC(N)=O` [n-Butyramide], the “anxiolytic activity in Vogel Conflict Assay” value in the data set with male Sprague-Dawley rats [12] (IP) is “no significant anxiolytic activity”.
On to `OC[C@H]1O[C@@](CO)(O[C@H]2O[C@H](CO)[C@@H](O)[C@H](O)[C@H]2O)[C@@H](O)[C@@H]1O` [sucrose], for which the “anxiolytic activity in Vogel Conflict Assay” value in the data set with male Sprague-Dawley rats [12] (IP) is “no significant anxiolytic activity”.
